# According to US20230248814A1, “COMPOSITIONS AND METHODS FOR TREATING MERKEL CELL CARCINOMA (MCC) USING HLA CLASS I SPECIFIC EPITOPES” (The Broad Institute, Inc., priority 2020, published 2023):
# Entries after “also recorded” stand apart in the source; their conditions may differ.
# How the values were obtained:
# [1] = tested on: MCC cell lines; experiment: HLA-I immunopeptidome (LC-MS/MS) of MCC cell lines at baseline and after IFN-γ; format: cell-based, human; settings: for increase in abundance of class I bound peptides (median): IFN-γ stimulation
# Protocol: Immunoprecipitation and mass spectrometry analysis, and peptide identification. Up to 40 million or 0.2 g of MCC cells were immunoprecipitated. Briefly, MCC cells were harvested and lysed in ice-cold lysis buffer containing […] (pH 8.0), 1 mM EDTA (pH 8.0), 0.1 M sodium chloride, Triton X-100, 0.06 M octyl β-d-glucopyranoside, 100 U/mL DNAse I, 1 mM phenylmethanesulfonyl fluoride (all from Sigma Aldrich), and protease inhibitor cocktail (Roche Diagnostics). Cell lysate was centrifuged at 12,700 rpm at 4° C. for 22 min. Lysate supernatant was coupled with Gammabind Plus sepharose beads (GE Healthcare) and incubated with 10 µg of HLA-I antibody (Clone W6/32, Santa Cruz Biotechnologies) at 4° C. under rotary agitation for 3 h. After incubation, the lysate-bead-antibody mixture was briefly centrifuged and the supernatant was discarded. Beads were washed with lysis buffer, consisting of wash buffer containing 40 mM Tris (pH 8.0), 1 mM EDTA (pH 8.0), 0.1 M sodium chloride, 0.06 M octyl β-d-glucopyranoside, and 20 mM Tris buffer, without protease inhibitors. Gel loading tips (Fisherbrand) were used to remove as much fluid from beads as possible. Peptides of up to three immunoprecipitations were combined, acid eluted, and analyzed using LC/MS-MS as described previously (35, 82). Briefly, peptides were resuspended in 3% acetonitrile with 5% formic acid and loaded onto an analytical column (20-30 cm with 1.9 µm C18 Reprosil beads, Dr. Maisch HPLC GmbH);, packed in-house). Peptides were eluted in a 6-30% gradient (EasyLC 1000 or 1200, Thermo Fisher Scientific) and analyzed on a QExactive Plus, Fusion Lumos, or Orbitrap Exploris 480 (Thermo Fisher Scientific). For Lumos measurements, peptides were also subjected to fragmentation if they were singly charged. […] Fractions were analyzed on a Fusion Lumos or Orbitrap Exploris 480 equipped with a FAIMSpro interface (83).
# Mass spectra were interpreted using Spectrum Mill software package v7.1 pre-Release (Broad Institute, Cambridge, MA). […] MS/MS spectra were searched against a protein sequence database that contained 90,904 entries, including all UCSC Genome Browser genes with hg19 annotation of the genome and its protein coding transcripts (52,788 entries), common human virus sequences (30,181 entries), recurrently mutated proteins observed in tumors from 26 tissues (4,595 entries), 264 common laboratory contaminants as well as protein sequences containing somatic mutations detected in MCC cell lines (3,076 entries). […]
# [2] = tested on: PBMCs from patient MCC-367; experiment: IFN-γ ELISpot with autologous PBMCs of patient MCC-367; format: cell-based, human; settings: 10 ug/ml peptide
# Protocol: ELISpot. Matching patient peripheral blood mononuclear cells (PBMCs) from patient MCC-367 were thawed, and 10^7 cells per well were seeded in 24 well plates overnight. Cells were stimulated with 10 ug/ml of the LT antigen peptide […] (SEQ ID NO:1) (identified in the MCC-367 HLA peptidome, FIG. 3F) in complete DMEM supplemented with 10% Human serum and 20 ng/ml IL-7 (PeproTech). After 3 days of stimulation, cells were supplemented with 20 units/mL IL-2 (PeproTech). After 10 days of stimulation, cells were cytokine deprived overnight. 50,000 cells per well were stimulated in an IFN- γ ELISpot assay with 10 ug/ml of the […] (SEQ ID NO:1) peptide. DMSO and an HIV-GAG peptide were used as negative controls. CEF (Mabtech) and PHA (Sigma Aldrich) were used as positive controls (not shown). ELISpot and T cell culture methods were described in detail previously (23, 86).
# [3] = target: USP7 (Homo sapiens, UniProt Q93009); settings: cited from earlier work
# [4] = tested on: MCC lines; experiment: Flow cytometry for HLA-I surface expression in MCC lines after interferon treatment; format: cell-based, human
# Protocol: (§1) Flow cytometry. Cells were dissociated with Versene and incubated with 5 µL Human TruStain FcX (Fc Receptor Blocking Solution; Biolegend # 422302) per million cells in 100 µL at room temperature for 10 min. Fluorophore-conjugated antibodies or respective isotype controls were added and incubated for another 30 min at 4° C. Cells were then washed once with PBS and resuspended in PBS or 4% paraformaldehyde and analyzed on an LSR Fortessa cytometer. For HLA-I and HLA-II detection, the following antibodies were used: HLA-ABC (W6/32 clone) conjugated to PE (BioLegend # 311406), APC (BioLegend # 311410), or AF647 (Santa Cruz Biotechnology # sc32235 AF647), and HLA-DR-FITC (BioLegend # 307604).
# [5] = tested on: MCC-301 cell line; experiment: Flow cytometry assessment of HLA-DR expression after IFN-γ; format: cell-based, human
# Protocol: as §1
# [6] = tested on: MCC lines; experiment: RNA-seq of class I antigen presentation genes in MCC lines before and after IFN-γ; format: cell-based, human; settings: IFN-γ treatment vs baseline
# Protocol: RNA sequencing and analysis. For samples from the MCC tumors and newly generated cell lines, RNA was first assessed for quality using the Agilent Bioanalyzer (DV200 metric). 100 ng of RNA were used as the input for first strand cDNA synthesis using Superscript III reverse transcriptase and Illumina’s TruSeq RNA Access Sample Prep Kit. Synthesis of the second strand of cDNA was followed by indexed adapter ligation with UMI (unique molecular index) adaptors. Subsequent PCR amplification enriched for adapted fragments. Amplified libraries were quantified, normalized, pooled, and hybridized with exome targeting oligos. Following hybridization, bead clean-up, elution, and PCR was performed to prepare library pools for sequencing on Illumina flowcell lanes. Transcriptomes were sequenced to a coverage of at least 50 million reads in pairs.
# Gene counts were obtained from BAM files using featureCounts version 2.0.0 (74). Very lowly expressed genes with average count across samples less than 1 were excluded from analysis. […]
# Differential expression analysis was carried out between IFN-γ plus and minus samples (adjusting for viral status as a covariate) using the negative binomial GLM Wald test of DESeq2, where significance was assessed using the p-values adjusted for multiple comparisons under default settings. […]
# [7] = tested on: ovarian carcinoma patients; settings: poly-ICLC with NY-ESO-1 peptide vaccine and Montanide; cited from earlier work
# [8] = tested on: healthy human volunteers; settings: one single s.c. administration; 8 subjects vs 4 placebo; cited from earlier work
# [9] = tested on: advanced hormone refractory prostate cancer patients; settings: personalized vaccination combined with low dose estramustine; cited from earlier work
# [10] = IFN-γ, 8 IFN-γ-inducible MCC lines
# Sequence of USP7 (Q93009 whole entry): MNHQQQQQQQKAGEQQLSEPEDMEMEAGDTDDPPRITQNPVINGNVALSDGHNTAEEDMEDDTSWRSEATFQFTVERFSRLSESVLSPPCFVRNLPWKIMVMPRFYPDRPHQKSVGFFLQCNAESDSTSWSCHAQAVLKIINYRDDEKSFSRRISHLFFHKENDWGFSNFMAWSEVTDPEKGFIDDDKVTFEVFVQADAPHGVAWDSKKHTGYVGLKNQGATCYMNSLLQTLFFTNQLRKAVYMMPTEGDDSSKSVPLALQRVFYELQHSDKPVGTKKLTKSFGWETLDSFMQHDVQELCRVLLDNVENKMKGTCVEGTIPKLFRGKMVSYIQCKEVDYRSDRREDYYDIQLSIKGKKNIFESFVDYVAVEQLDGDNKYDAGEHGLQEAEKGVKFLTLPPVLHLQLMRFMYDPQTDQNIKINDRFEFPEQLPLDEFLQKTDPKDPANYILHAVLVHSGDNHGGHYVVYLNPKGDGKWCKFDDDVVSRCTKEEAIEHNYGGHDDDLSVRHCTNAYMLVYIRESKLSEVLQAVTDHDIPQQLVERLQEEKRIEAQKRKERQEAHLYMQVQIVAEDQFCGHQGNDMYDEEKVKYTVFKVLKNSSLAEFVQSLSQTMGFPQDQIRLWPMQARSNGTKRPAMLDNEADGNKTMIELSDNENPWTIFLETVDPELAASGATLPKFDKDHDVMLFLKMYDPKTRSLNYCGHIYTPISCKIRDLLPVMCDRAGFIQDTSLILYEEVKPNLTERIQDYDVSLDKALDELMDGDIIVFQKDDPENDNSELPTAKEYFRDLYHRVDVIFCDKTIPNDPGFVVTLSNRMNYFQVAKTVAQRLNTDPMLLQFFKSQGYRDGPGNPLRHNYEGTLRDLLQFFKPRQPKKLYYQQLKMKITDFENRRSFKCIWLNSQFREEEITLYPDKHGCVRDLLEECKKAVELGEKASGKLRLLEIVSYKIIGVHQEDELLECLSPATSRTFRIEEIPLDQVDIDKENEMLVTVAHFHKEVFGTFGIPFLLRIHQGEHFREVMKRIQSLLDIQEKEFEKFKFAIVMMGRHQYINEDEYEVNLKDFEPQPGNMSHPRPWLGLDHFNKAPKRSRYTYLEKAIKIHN
molecule,measurement,setting,value
TSDKAIELY,detection of the epitope in the HLA-I peptidome,"[1]; MCC-367 line, baseline vs IFN-γ",detected only after IFN-γ treatment and not at baseline
same,reactivity of autologous T cells (IFN-γ ELISpot),[2],confirmed reactivity
CN1CCN(CCC(=O)Nc2ccc3c(=O)n(CC4(O)CCN(C(=O)[C@H](CCCNC(=O)c5ccc6c(Cl)c7c(nc6c5)CCCC7)Cc5ccccc5)CC4)cnc3c2)CC1 [XL177B],on-target activity,[3],on-target activity at higher doses
same,potency relative to XL177A (fold less potent),[3],500 fold
IFN-γ: known inducer of HLA-I,increase in abundance of class I bound peptides (median),[1]; across 4 cell lines,25 fold
same,increase in abundance of class I bound peptides (median),"[1]; across 7 cell lines, comparable input material",12 fold
same,change in frequencies of peptides mapping to each HLA allele,[1]; cell lines with vs without IFN-γ,increase in HLA-B-presented peptides
same,HLA-I fold increase in MFI,"[4]; IFN-γ exposure, MCC-336, -350, -358",≤ 1.15 fold
same,"HLA I surface expression, fold increase by MFI (median)",[4]; [10],5.7 fold
same,"HLA I surface expression, fold increase by MFI (range)",[4]; [10],2.5 - 12.4 fold
same,response of HLA I surface expression to IFN-γ exposure,"[4]; MCC-336, -350, -358",not responsive
same,HLA-DR expression,[5],inducible HLA-DR expression; also recorded: upregulated HLA-DR expression
same,class I gene expression (RNA-seq),[6],markedly upregulated class I genes; also recorded: markedly upregulated class I gene transcripts
Polyinosinic-Polycytidylic Acid-poly-L-lysine Carboxymethylcellulose [poly-ICLC],patients with induction of CD4+ and CD8+ T cell and antibody responses to the peptide,[7],> 90%
same,differentially expressed genes versus placebo,[8],up to 212 genes
C[C@]12CC[C@@H]3c4ccc(OC(=O)N(CCCl)CCCl)cc4CC[C@H]3[C@@H]1CC[C@@H]2O [estramustine],patients with >50% decrease in serum PSA,[9],54%
